Measured values reported in patent US7927579B2, “Tandem analyses of noncovalently driven effectors for modulatory mapping of activities of protein sites” (priority 2003, dated 2011).
Where no end group is shown, it is not given here.

Experiments:
[1] = target: T1, HIV protease I (Human immunodeficiency virus type 1 group M subtype B, UniProt P04585); details: covalent attachment to Cys95 at the dimer interfaces; Davis et al.; cited from earlier work
T1 construct: HIV-1 PR (15 μg/ml final concentration) was preincubated at 25 C

[2] = target: HIV I protease (Human immunodeficiency virus type 1 group M subtype B, UniProt P04585); details: Danielson et al.; cited from earlier work
[3] = target: T2, HIV PR (Human immunodeficiency virus type 1 group M subtype B, UniProt P04585); assay: Octapeptide library screen against HIV PR with and without CuCl2; type: biochemical; details: non-substrate based inhibiting peptide; residual HIV PR activity measured after cupric ion scavenger
T2 construct: preincubating the tetrapeptide(s) with HIV PR then adding the disulfide
Protocol: Combinatorial libraries of octapeptides were synthesized using T, L, N, F, S, G, F Q, V and I at positions 3-6 to generate 10,000 octapeptides. E and I occupied positions 1 and 2, respectively, and G, L occupied positions […], respectively. The C-terminus was in amide form, and the N terminus was in amino form. The peptide libraries were synthesized by standard procedures known in the art, Houghten, supra. The libraries were screened against HIV PR with and without CuCl2. CuCl2 was added to block 50-75% activity. Libraries were screened against CuCl2 by preincubating the tetrapeptide(s) with HIV PR, then adding CuCl2 at t0 and waiting until time tx has elapsed, the time required to inhibit 50-75% of enzyme activity in the absence of the library. At tx residual HIV PR activity was measured according to Danielson et al, supra, after adding cupric ion scavenger, namely, iminodiacetic.

[4] = target: T2, HIV PR; assay: Tetrapeptide library screen against glutathione or II on HIV PR (assay in Salto et al.); type: biochemical; details: tetrapeptides preincubated with HIV PR, then disulfide added; (100 μM) printed; bind at the dimer interface
Protocol: Targeting Cys95. […] Davis et al. Biochemistry 20:2482-2488 (1996). For quantification of the irreversible inactivation of HIV proteases by these disulfides, HIV-1 PR (15 μg/ml final concentration) was preincubated at 25 C in 50 mM HEPES (pH 8.0), 1M NaCl, 1 mM EDTA, 5% Me2SO in the presence of a 10 μM to 1 mM concentration of each inhibitor. At various times, aliquots were removed and assayed for activity. The rates of inactivation were calculated after Salto et al. J. Biol. Chem. 269:10691-10698 (1994).
Combinatorial libraries containing tetrapeptides were synthesized with free C and N termini using T, L, N, F, R, S, V, G, F Q, and H as amino acid residues randomly located at the four positions of P4P3P2P1 according to procedures well known in the art (Houghten, R. A. Annu. Rev. Pharmacol. Toxicol. 2000, 40:273-282 and references therein). The amino acids were either spatially separated or synthesized in 100 pools of 100 tetrapeptides. Libraries were screened against glutathione or II by preincubating the tetrapeptide(s) with HIV PR then adding the disulfide and waiting until time t^ has elapsed (the time required to inhibit 50-75% of the biological target molecule's activity) in the absence of the library.

Compound | inactivation of HIV protease I by covalent attachment to Cys95 [1] | activity in library screen against disulfide inactivation of HIV PR [4] | other results
O=C(O)c1cc(SSc2ccc([N+](=O)[O-])c(C(=O)O)c2)ccc1[N+](=O)[O-] [5,5′-dithiobis(2-nitrobenzoic acid)] | inactivate HIV protease I | – | –
[Cl][Cu][Cl] [Cupric ions, CuCl2] | – | – | inactivation of HIV I protease by binding to Cys67 and His69 [2]: specifically inactivate HIV I protease
N[C@@H](CCC(=O)N[C@@H](CS)C(=O)NCC(=O)O)C(=O)O [glutathione] | inactivate HIV protease I | – | –
LGQGVSIE-NH2 | – | – | inhibitory activity against HIV PR [3]: about 5 μM
S-F-N-L (SFNL) [tetrapeptide with free C and N termini from combinatorial library] | – | most active | –
TLNL [tetrapeptide with free C and N termini from combinatorial library] | – | most active | –
